# Laboratory results as given in US7291451B2, “Modulation of pericyte proliferation” (XOMA Technology Ltd., priority 2000, dated 2007).
# What was measured:
# [1] = system: MAP kinase phosphorylation; assay: MAP kinase phosphorylation in BRPC; format: cell-based, bovine; settings: 5 μg/ml, 1 to 60 minutes
# Protocol: Experiments were also performed in which the level of MAP kinase phosphorylation was determined in BRPC treated with 75 μg/ml rBPI21 or 5 μg/ml XMP.679. […] These observations indicate that exemplary BPI protein products rBPI21 and, to a lesser extent, XMP.679, enhance MAP kinase phosphorylation in BRPC.
# [2] = system: retinal neovascularization; assay: Oxygen-pulse induced retinal neovascularization in newborn rats; format: in vivo; settings: for retinal neovascular score (sum of quadrant scores): P18, vehicle 6.41
# Protocol: In contrast to the assay for anti-angiogenesis effect of BPI protein products in neonatal mice described in part A above, experiments were conducted in newborn rats Crj:CD(SD)IGS (Charles River, Japan). Unlike the method described in part A above of producing ischemia-induced retinal neovascularization by exposing neonatal mice to a constant level of oxygen at 75±2% for 5 days, newborn rats were exposed to oxygen pulses as described below.
# The newborn rats within a few hours after birth were put into the oxygen chamber (780 mm×520 mm×520 mm). The oxygen level in the experimental chamber was controlled with a computer program (Oxycycler, Reming Bioinstruments, N.Y., US). The oxygen level was maintained at 80% for 20.5 hours, then rapidly dropped to 21% for 30 minutes before a gradual return to 80% during the following 3 hours. The program was run for 11 cycles (24 hour per cycle). At the end of 11th cycle (postnatal day 11 (P11)), mothers and newborn rats were transferred to room air condition and kept for 7 days. For a seven day period step newborn rats were injected intraperitoneally with XMP.679 at doses of 2, 6 and 20 mg/kg. On P18, the rats were sacrificed, and the left eyes were enucleated. The eyes were fixed in 4% paraformaldehyde (PFA) for 1 hour. Using scissors, the cornea and sclera were removed from the eyecup. The lens was removed with tweezers, and the vitreous was thoroughly removed with tweezers and scissors. The semi-spherical retina was fixed in 4% PFA and stained, using the method of adenosine diphosphatase (ADPase) histochemistry. Abnormal neovascularization was assessed on P18 by histochemically staining retina for ADPase activity. This procedure preferentially stains retinal vascular endothelium and microglia in rats of this age. The retina was incubated in ADPase incubation medium at 37° C. for 1 hour with gentle agitation. It was then washed thoroughly in cold saline, and treated in a 1:10 dilution of ammonium sulfide for 1 minute. The retina was then washed in […] to remove sulfide. The retina was placed in a small drop of liquid on a saline-coated slide. […] The retina was put in a layer of Perma Fluor® covered with a cover glass. Glomerular buds (tiny popcorn) upon the surface of the regina, fan shaped neovascular fronds, and ridges (vascular complexes that cause a distinct elongate elevation of the retinal surface, and which usually contain several vessels running parallel to the ciliary body) were identified.
# Criteria for scoring neovascular intensity were as follows: 0: Nothing; 1: <5 buds; 2: >5 buds, or a frond; 3: Ridge<half of quadrant; or 4: Ridge>half of quadrant. The retinal neovascular scores were equal to the sum of quadrant scores. […]
# [3] = system: ischemia-induced retinal neovascularization; assay: Ischemia-induced retinal neovascularization in neonatal mice; format: in vivo
# Text: To produce ischemia-induced retinal neovascularization, litters of 7-day-old (postnatal day 7, P7) C57BL/6J mice and their nursing mothers were exposed to 75±2% oxygen for 5 days and then returned to ambient air at age P12 as described in Smith et al., Invest. Ophthalmol. Vis. Sci., 1994, 35:101-111. […] Control animals received saline. After sacrifice and enucleation, flat-mounted, fluorescein-conjugated dextran-perfused retinas were examined to assess the retinal vasculature. This mouse model reflects the effects of hypoxia on inducing angiogenesis in the retina. After birth, the mice are exposed to a high level oxygen for 4-5 days. The effect of high levels of oxygen will decrease or prevent the growth of blood vessels in the retina. Once the mice have been removed from the hyperoxic condition to normal oxygen levels, the retina will develop hypoxia due to the lack of blood vessels. The hypoxia in the retina will induce many growth factors (including VEGF) which leads to a angiogenic response that can be quantitated by measuring the number of nuclei in the blood vessels above the internal limiting membrane. This mouse model of angiogenesis is thought to be a good animal reflection of retinopathy of prematurity. The main growth factor responsible for retinal angiogenesis in this mouse model is thought to be due to the expression of VEGF. […] These neovascular rufts were most prominent on P17-19, but after P23 the neovascularization regressed, and the vascular pattern normalized by P26. As described in Aiello et al., Proc. Nat'l Acad. Sci. USA, 1995, 92:10457-61, mice at P17 (n=5) were deeply anesthetized with pentobarbitol sodium (100 mg/kg) and sacrificed by cardiac perfusion with 4% paraformaldehyde in phosphate-buffered saline. Eyes were enucleated and fixed in 4% paraformaldehyde at 4° C. overnight, and enbedded in paraffin. Over 50 serial sections (6 μm) including optic nerve head were placed on microscope slides. After staining with periodic acid/Schiff reagent and hematoxylin, 10 intact sections of equal length, each 30 μm apart, were evaluated for a span of 300 μm. All retinal vascular cell nuclei anterior to the internal limiting membrane were counted in each section by a fully masked protocol. The mean of all 10 counted sections yielded average neovascular cell nuclei per 6 μm section per eye. No vascular cell nuclei anterior to the internal limiting membrane are observed in normal unmanipulated animals.
# [4] = system: human retinal pericytes (HRPC); assay: Human retinal pericyte proliferation assay (Methylene blue, OD650); format: cell-based; settings: 5% FBS
# Protocol: In addition to studies with primary cell cultures of bovine retinal pericytes described above, experiments were performed with a human cell line obtained from Clonetics (San Diego, Calif.) of retinal pericytes (catalog no. CC-2542 PyCRt). These human retinal pericytes (HRPC) were cultured in Dulbecco's modified Eagle's medium (DMEM, Gibco BRL, Grand Island, N.Y.) with 5.6 mM glucose and 20% fetal bovine serum (FBS, Gibco BRL, Grand Island, N.Y.).
# Proliferation assays were performed as follows: HRPC were plated onto 24-well culture plates (3000 cells/well) in 5 or 10% FBS-DMEM with 5.6 mM glucose and incubated overnight. The cells were treated once with vehicle alone or with vehicle and several concentrations of XMP.627 ([SEQ ID NO: 4]), XMP.664 ([SEQ ID NO: 5]), XMP.679 ([SEQ ID NO: 3]), or XMP.728 ([SEQ ID NO: 6]) for 5 or 6 days. The medium was not changed, nor were additional amounts of test compounds added as described in the experiments of part A above. The cells were fixed and stained with Methylene blue and proliferation assayed by observation at OD650.
substance,measurement,setting,value
"XMP.679: BPI-derived peptide derived from BPI domain II, SEQ ID NO: 3 (KLFKAQAKAKG; XMP.679; listed as Homo sapiens)",effect on MAP kinase phosphorylation,[1],increased MAP kinase phosphorylation over time
same,retinal neovascular score (sum of quadrant scores),[2]; 2 mg/kg/day intraperitoneal,7.29
same,retinal neovascular score (sum of quadrant scores),[2]; 6 mg/kg/day intraperitoneal,4.59
same,change of retinal neovascularization score versus vehicle,"[2]; 6 mg/kg, differences not statistically significant",reduced
same,retinal neovascular score (sum of quadrant scores),[2]; 20 mg/kg/day intraperitoneal,5.56
same,decrease of number of nuclei anterior to the internal limiting membrane,"[3]; 10 mg/kg daily intraperitoneal, p<0.001",30 to 40%
same,retinal vasculature compared with control mice,[3]; 10 mg/kg intraperitoneal every 24 hrs P12 to P17,fewer blood vessels with much less density and tortuosity
same,decrease of number of nuclei anterior to the internal limiting membrane,"[3]; 20 mg/kg daily intraperitoneal, p<0.01",approximately 71%
same,inhibition of retinal neovascularization (dose response),[3]; range of 10-20 mg/kg,inhibits retinal neovascularization in a dose responsive manner
same,effect on HRPC growth,[4]; 10 μg/ml and higher,slight growth inhibitory effect
same,concentration of maximum HRPC proliferation,[4],approximately 5 μg/ml
same,effect on HRPC proliferation,"[4]; approximately 0.5, 1, 5, 8 μg/ml",increased HRPC proliferation in a dose responsive manner
